Data on 10 compounds can be found in PubChem BioAssay (NCI).

Several values for one entry are separate records, joined by “and”; a condition that tells them apart may be missing. Identical values can stand only once.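 How tested: cells in 96-well plates exposed to compound for 48 hours at five concentrations. GI50 is the concentration that inhibits growth by half. TGI is the concentration that stops growth completely.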 Where only a bound is given, the exact number is not on record here.

What all share (experiment): growth of human tumour cells (NCI), 48 h
Test [1] concerns MCF7 breast.
The subject of test [2] is NCI-H522 lung.
Test [3] concerns OVCAR-8 ovarian.
In test [4] the test system is ACHN renal.
In test [5] the test system is M14 melanoma.
Test [6] has as its system HCT-15 colon.
Test [7] relates to T-47D breast.
In test [8] the test system is SW-620 colon.
For test [9], the system named is SF-539 CNS.
Test [10] has as its system PC-3 prostate.
Test [11] concerns HOP-62 NSCLC.
For test [12], the system named is LOX IMVI melanoma.
Test [13] has as its system HS 578T breast.
Test [14] relates to MOLT-4 leukemia.

Turning to `CC(C)C(Cl)CCC(C)(Cl)C(=O)CBr` (stereo not drawn), the TGI was 4.53 µM in test [1]; 3.34 µM in [2]; above 100 µM in test [3]; 19.3 µM in [4]; 11.3 µM in [5]; 10.6 µM in [6]. Further, the TGI in test [7] amounted to 6.27 µM; in test [8] it was 5.65 µM; in [9], 32.1 µM; in test [10], 23.2 µM; in test [11], 19.6 µM; in test [12], 2.36 µM. Moreover, in test [13], the TGI came out at 23.1 µM.

On to `CC1(C)O[C@@H]2[C@@H](COC(C)(C)O[C@H]2C2SCCCS2)O1`, for which the TGI in [1], in test [2], in test [3], in [4], in [5] and in [6] was above 100 µM each time. For the same compound, the TGI in [7], in test [8], in test [9], in [10], in test [11] and in [14] was above 100 µM each time.

As for `Cc1cc(O)c(/C=N/C(N)=S)c(=O)o1`, the TGI in test [1], in test [2], in test [3], in test [4], in test [5] and in test [6] was above 100 µM in each case. For the same compound, the TGI in test [8], in [9], in [10], in test [11], in test [13] and in [14] was above 100 µM each time.

`Clc1ccc(C=Nc2ccc(Oc3ccc(Cl)cc3)c(Cl)c2)cc1`: the TGI in test [1] is 88 µM; in [2] it was 32.3 µM; in [3], above 100 µM; in test [4], above 100 µM; in [5], 46.9 µM; in test [6] it was 44.2 µM. The TGI is 89.8 µM in test [7]; above 100 µM in [8]; 35.4 µM in [9]; 69.8 µM in [10]; 37.5 µM in test [11]; 39.1 µM in test [12]. The values for the TGI in [13] and in [14] were 51.4 µM and above 100 µM, respectively.

For the compound `COC(=O)C1CCC(=O)N1CN(C(C)=O)c1cccc(O)c1` (stereo not drawn), the TGI in [1], in test [2], in [3], in test [4], in [5] and in test [6] was above 100 µM each time. Further, the TGI in test [7], in test [8], in test [9], in [10], in test [11] and in test [12] was above 100 µM each time. Also, the TGI in test [13] and in test [14] was above 100 µM in each case.

Turning to `N#Cc1sc2nc3ccccc3n2c1N`, the TGI in test [1], in [2], in test [3], in test [4], in test [5] and in [6] was above 100 µM each time. Also, the TGI in [7], in test [8], in test [9], in [10], in test [11] and in test [12] was above 100 µM each time. The TGI in [13] and in [14] was above 100 µM each time.

As for `Cc1[nH]n(-c2nc3c(c(=O)[nH]2)CCCC3)c(=O)c1CCO`, the TGI in test [1], in test [2], in test [3], in test [4], in [5] and in [6] was above 100 µM each time. In addition, the TGI in test [7], in test [8], in test [9], in test [10], in [11] and in test [12] was above 100 µM throughout. For the same compound, the TGI in [13] and in test [14] was above 100 µM throughout.

Take `COc1ccc(OC)c2sc(N3C(=O)/C(=C/c4cccc(Oc5ccccc5)c4)N=C3c3ccccc3)nc12`: the TGI in test [1], in test [2], in test [3], in test [4], in test [5] and in test [6] was above 100 µM each time. In addition, the TGI in test [7], in test [8], in test [10], in test [11], in test [12] and in test [13] was above 100 µM throughout. Also, in test [14], the TGI is above 100 µM.

In the case of `COc1cc([C@@H]2c3cc4c(cc3[C@@H](Nc3ccc(NC(=O)c5cc([N+](=O)[O-])cn5C)cc3)[C@H]3COC(=O)[C@H]23)OCO4)cc(OC)c1O`, the TGI in test [1] was above 31.6 µM; in test [2], above 100 µM; in test [3], 1.04 µM; in [4], 0.484 µM and 0.164 µM; in test [5], 2.47 µM and 4.94 µM; in test [6], 1.54 µM and 2.48 µM. The TGI in test [7] was 28.8 µM and > 24.4 µM; in [9] it was 0.446 µM and 0.414 µM; in [10] it was > 100 µM and 12.5 µM; in test [11] it was 0.174 µM and 0.127 µM; in test [13] it was above 100 µM. Further, the GI50 is 0.192 µM in test [6]; 0.0115 µM in test [7]; 0.111 µM and 0.0268 µM in [12]; 2.11 µM and 0.756 µM in [13].

`NS(=O)(=O)c1nnc(NC(=S)NC(=O)Nc2ccc(Cl)c(Cl)c2)s1`: the TGI in test [1] is above 100 µM; in test [2], 31 µM; in test [3] it was 69.7 µM; in test [5], 36.1 µM; in test [6] it was 48.9 µM; in test [8], 65.5 µM. In addition, the TGI was 21.8 µM in test [9]; above 100 µM in test [10]; 63.7 µM in [11]; 34 µM in test [12]; 67.2 µM in test [13]; above 100 µM in test [14].
